Test results: US5153181A, “Pharmaceutical compositions comprising organic polymers containing inorganic anionic groups and method of prophylaxis and treatment of retrovirus infections in mammals using said compositions” (priority 1986, dated 1992)
Like-named read-outs stand apart in the source and are kept apart here.

Tests used:
[1] = target: T1, SR-D-associated reverse transcriptase (Rous sarcoma virus - Schmidt-Ruppin B, UniProt O92956); format: biochemical
T1 construct: alpha/beta heterodimer cut from Gag-Pol polyprotein
T1 sequence (O92956 709-1567): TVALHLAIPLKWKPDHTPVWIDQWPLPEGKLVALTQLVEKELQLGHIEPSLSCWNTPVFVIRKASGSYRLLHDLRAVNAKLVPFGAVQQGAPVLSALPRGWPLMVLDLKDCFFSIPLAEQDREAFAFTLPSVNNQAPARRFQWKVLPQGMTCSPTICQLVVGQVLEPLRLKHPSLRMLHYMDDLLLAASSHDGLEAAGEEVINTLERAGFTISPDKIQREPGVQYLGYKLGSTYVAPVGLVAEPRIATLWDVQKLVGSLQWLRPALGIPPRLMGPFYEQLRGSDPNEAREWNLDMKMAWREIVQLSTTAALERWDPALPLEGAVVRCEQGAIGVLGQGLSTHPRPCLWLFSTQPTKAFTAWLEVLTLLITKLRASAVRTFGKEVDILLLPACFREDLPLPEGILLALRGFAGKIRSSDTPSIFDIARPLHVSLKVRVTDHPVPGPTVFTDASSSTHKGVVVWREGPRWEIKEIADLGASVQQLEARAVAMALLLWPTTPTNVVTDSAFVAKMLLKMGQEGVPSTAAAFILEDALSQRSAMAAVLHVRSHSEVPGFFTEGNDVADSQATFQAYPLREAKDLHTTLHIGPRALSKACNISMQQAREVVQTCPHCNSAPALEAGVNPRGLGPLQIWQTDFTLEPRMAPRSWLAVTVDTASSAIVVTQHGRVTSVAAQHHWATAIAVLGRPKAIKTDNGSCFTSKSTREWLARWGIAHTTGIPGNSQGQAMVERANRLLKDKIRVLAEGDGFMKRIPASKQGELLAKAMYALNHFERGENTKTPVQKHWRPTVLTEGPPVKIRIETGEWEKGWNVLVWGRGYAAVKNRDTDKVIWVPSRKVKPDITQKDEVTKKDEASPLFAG

[2] = LD50 taken from published literature; details: in vivo; calculated from MW
From the text: The LD50 values are known from the literature.
The results shown in FIGS. 1A and B allow to determine the concentration of the inhibitors which result in 90% or 99% inhibition. The quotient of the LD50 values (taken from published literature) and the inhibitor concentrations indicated in FIG. 1 is the efficiency index shown in Table I.

[3] = cited from earlier work
[4] = known from the literature; cited from earlier work
[5] = poly(rA) template, oligo(dT)10 primer, FIGS. 1A and B

Compound	Inhibition of RNA-dependent DNA synthesis (3H-TMP incorporation) [1, 5]	further results
O=C(O)P(=O)(O)O [foscarnet]	Somewhat less inhibitory	LD50 [2]: 500 mg/kg; Toxicity in clinical trials [3]: considerable toxicity
Cc1ccc(C(=O)Nc2ccc(S(=O)(=O)O)c3cc(S(=O)(=O)O)cc(S(=O)(=O)O)c23)cc1NC(=O)c1cccc(NC(=O)Nc2cccc(C(=O)Nc3cc(C(=O)Nc4ccc(S(=O)(=O)O)c5cc(S(=O)(=O)O)cc(S(=O)(=O)O)c45)ccc3C)c2)c1 [suramin]		Inhibition of RNA-dependent DNA synthesis (3H-TMP incorporation) [1]: Somewhat less inhibitory; LD50 [4]: 40 mg/kg
chondroitin sulfate	Low inhibitory effect	
dextran	Low inhibitory effect	
dextran sulfate MW 8,000	efficient inhibitors	
dextran sulfate MW 500,000	efficient inhibitors	
dextran sulfate MW 5000	Low inhibitory effect	
diethylamine ethyl-dextran [DEAE-dextran]	Low inhibitory effect	
heparin	Low inhibitory effect	
pentosan polysulfate MW 5,000	Somewhat less inhibitory	
